pIC50: −log10 of the molar value. Activity calls are given as the source filed them. No cut-off for these calls is given here.
Tests used:
Calf thymus DNA [1] = assay: Binding affinity to calf thymus DNA assessed as bathochromic shift at 20 uM by UV/visible spectrophotometry; type: nucleic-acid assay; details: Bos taurus
Calf thymus DNA [2] = assay: Binding affinity to calf thymus DNA assessed as hypochromic shift at 20 uM by UV/visible spectrophotometry; type: nucleic-acid assay; details: Bos taurus
[3] = Binding affinity to DNA (unknown origin) at 1 to 5 uM after 15 mins by DNA footprinting assay
Homo sapiens = species: Homo sapiens; assay: Inhibition of human DNA topoisomerase 2 assessed as inhibition of DNA cleavage
[4] = target: T1, DNA topoisomerase 1 (Homo sapiens) (UniProt P11387); assay: Inhibition of human DNA topoisomerase 1 assessed as inhibition of DNA cleavage
T1 sequence (whole entry): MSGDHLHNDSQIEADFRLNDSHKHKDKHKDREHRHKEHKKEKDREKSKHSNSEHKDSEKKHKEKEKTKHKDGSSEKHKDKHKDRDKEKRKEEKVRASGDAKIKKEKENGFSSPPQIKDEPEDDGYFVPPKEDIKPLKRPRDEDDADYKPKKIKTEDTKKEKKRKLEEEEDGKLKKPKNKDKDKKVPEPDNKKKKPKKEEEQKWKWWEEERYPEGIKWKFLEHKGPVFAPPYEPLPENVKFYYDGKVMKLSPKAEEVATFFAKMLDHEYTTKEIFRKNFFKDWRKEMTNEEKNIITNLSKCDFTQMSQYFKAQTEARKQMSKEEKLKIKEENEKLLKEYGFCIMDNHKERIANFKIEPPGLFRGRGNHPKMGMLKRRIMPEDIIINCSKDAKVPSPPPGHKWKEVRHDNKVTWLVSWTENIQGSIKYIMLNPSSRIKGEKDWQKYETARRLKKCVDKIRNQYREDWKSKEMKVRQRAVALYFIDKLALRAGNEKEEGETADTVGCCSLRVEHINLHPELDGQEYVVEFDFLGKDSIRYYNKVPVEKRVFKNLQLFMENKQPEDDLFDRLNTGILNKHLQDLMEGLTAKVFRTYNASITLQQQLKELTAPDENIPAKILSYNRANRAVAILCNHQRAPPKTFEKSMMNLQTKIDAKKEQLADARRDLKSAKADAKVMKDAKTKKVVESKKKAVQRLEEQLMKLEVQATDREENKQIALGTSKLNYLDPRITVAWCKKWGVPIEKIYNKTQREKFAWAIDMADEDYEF

Escherichia coli [5] = assay: Binding affinity to Escherichia coli pUC19 plasmid assessed as nicked DNA at 0.1 to 5 uM by ethidium bromide staining-based agarose gel electrophoresis
Escherichia coli [6] = assay: Binding affinity to Escherichia coli pUC19 plasmid assessed as induction of topoisomerase1-mediated DNA relaxation at 2 uM incubated for 45 mins prior to topoisomerase1 addition by agarose gel electrophoresis
Calf thymus DNA [7] = assay: Binding affinity to calf thymus DNA assessed as DNA intercalation at 1 to 50 uM by circular dichroism analysis; type: nucleic-acid assay; details: Bos taurus
Calf thymus DNA [8] = assay: Binding affinity to calf thymus DNA assessed as change in melting temperature at 0.5 drug/DNA ratio by spectrophotometry; type: nucleic-acid assay; details: Bos taurus
[9] = Drug uptake in human H460 cell perinuclear region at 10 uM after 2 hrs by fluorescence microscopy; type: ADME, cell-based; details: h460, 2 h
[10] = Drug uptake in human H460 cell cytoplasm at 10 uM after 2 hrs by fluorescence microscopy; type: ADME, cell-based; details: h460, 2 h
HCT-116 [11] = assay: Cell cycle arrest in human HCT116 cells assessed as accumulation at G2/M phase at 5 uM after 48 hrs by propidium iodide staining-based FACS analysis (reference value: 31 +/- 0.1 %); type: functional
HCT-116 [12] = assay: Cell cycle arrest in human HCT116 cells assessed as accumulation at G2/M phase at 0.5 uM after 48 hrs by propidium iodide staining-based FACS analysis (reference value: 31 +/- 0.1 %); type: functional
HCT-116 [13] = assay: Cell cycle arrest in human HCT116 cells assessed as accumulation at G2/M phase at 5 uM after 24 hrs by propidium iodide staining-based FACS analysis (reference value: 28 +/- 1 %); type: functional
HCT-116 [14] = assay: Cell cycle arrest in human HCT116 cells assessed as accumulation at G2/M phase at 0.5 uM after 24 hrs by propidium iodide staining-based FACS analysis (reference value: 28 +/- 1 %); type: functional
HCT-116 [15] = assay: Cell cycle arrest in human HCT116 cells assessed as accumulation at S phase at 5 uM after 48 hrs by propidium iodide staining-based FACS analysis (reference value: 32 +/- 1 %); type: functional
HCT-116 [16] = assay: Cell cycle arrest in human HCT116 cells assessed as accumulation at S phase at 0.5 uM after 48 hrs by propidium iodide staining-based FACS analysis (reference value: 32 +/- 1 %); type: functional
HCT-116 [17] = assay: Cell cycle arrest in human HCT116 cells assessed as accumulation at S phase at 5 uM after 24 hrs by propidium iodide staining-based FACS analysis (reference value: 39 +/- 0.2 %); type: functional
HCT-116 [18] = assay: Cell cycle arrest in human HCT116 cells assessed as accumulation at S phase at 0.5 uM after 24 hrs by propidium iodide staining-based FACS analysis (reference value: 39 +/- 0.2 %); type: functional
HCT-116 [19] = assay: Cell cycle arrest in human HCT116 cells assessed as accumulation at G1 phase at 5 uM after 48 hrs by propidium iodide staining-based FACS analysis (reference value: 37 +/- 2 %); type: functional
HCT-116 [20] = assay: Cell cycle arrest in human HCT116 cells assessed as accumulation at G1 phase at 0.5 uM after 48 hrs by propidium iodide staining-based FACS analysis (reference value: 37 +/- 2 %); type: functional
HCT-116 [21] = assay: Cell cycle arrest in human HCT116 cells assessed as accumulation at G1 phase at 5 uM after 24 hrs by propidium iodide staining-based FACS analysis (reference value: 33 +/- 1 %); type: functional
HCT-116 [22] = assay: Cell cycle arrest in human HCT116 cells assessed as accumulation at G1 phase at 0.5 uM after 24 hrs by propidium iodide staining-based FACS analysis (reference value: 33 +/- 1 %); type: functional
HCT-116 [23] = assay: Cell cycle arrest in human HCT116 cells assessed as accumulation at subG0/G1 phase at 5 uM after 48 hrs by propidium iodide staining-based FACS analysis (reference value: 4 +/- 1 %); type: functional
HCT-116 [24] = assay: Cell cycle arrest in human HCT116 cells assessed as accumulation at subG0/G1 phase at 0.5 uM after 48 hrs by propidium iodide staining-based FACS analysis (reference value: 4 +/- 1 %); type: functional
HCT-116 [25] = assay: Cell cycle arrest in human HCT116 cells assessed as accumulation at subG0/G1 phase at 5 uM after 24 hrs by propidium iodide staining-based FACS analysis (reference value: 4 +/- 1 %); type: functional
HCT-116 [26] = assay: Cell cycle arrest in human HCT116 cells assessed as accumulation at subG0/G1 phase at 0.5 uM after 24 hrs by propidium iodide staining-based FACS analysis (reference value: 4 +/- 1 %); type: functional
MCF7 = assay: Cytotoxicity against human MCF7 cells after 72 hrs by MTT assay; type: functional, cell-based; details: MCF7, 72 h
[27] = Cytotoxicity against human H460 cells after 72 hrs by MTT assay; type: functional, cell-based; details: NCI-H460, 72 h
HCT-116 [28] = assay: Cytotoxicity against human HCT116 cells after 72 hrs by MTT assay; type: functional, cell-based; details: HCT-116, 72 h
DNA = assay: Induction of DNA damage in plasmid DNA in E. coli S30 cell-free system assessed as inhibition of EGFP translation at 50 uM after 1 hr by fluorescence assay

C[N+]1(C)CCN(c2ccc3cc(C#N)c4nc5ccccc5n4c3c2)CC1.[I-]
Activity (Calf thymus DNA [1]): Active
Activity (Calf thymus DNA [2]): Active
Activity [3]: Active
Activity (Homo sapiens): inactive
Activity [4]: inactive
Activity (Escherichia coli [5]): Active
Activity (Escherichia coli [6]): Active
Activity (Calf thymus DNA [7]): Active
ΔTm (Calf thymus DNA [8]): 15.4 °C
Drug uptake [9]: Active
Drug uptake [10]: Active
Activity (HCT-116 [11]): 28%
Activity (HCT-116 [12]): 31%
Activity (HCT-116 [13]): 29%
Activity (HCT-116 [14]): 32%
Activity (HCT-116 [15]): 29%
Activity (HCT-116 [16]): 32%
Activity (HCT-116 [17]): 33%
Activity (HCT-116 [18]): 36%
Activity (HCT-116 [19]): 43%
Activity (HCT-116 [20]): 37%
Activity (HCT-116 [21]): 38%
Activity (HCT-116 [22]): 32%
Activity (HCT-116 [23]): 5%
Activity (HCT-116 [24]): 6%
Activity (HCT-116 [25]): 7%
Activity (HCT-116 [26]): 6%
pIC50 (MCF7): 5.62
pIC50 [27]: 5.70
pIC50 (HCT-116 [28]): 6.22
inhibition at 50 µM (DNA): 45%

— ChEMBL document CHEMBL3217548, “Biological activity and DNA binding studies of 2-substituted benzimidazo[1,2-a]quinolines bearing different amino side chains” (Medchemcomm, 2013)
